Where a SMILES comes first, the peptide text is derived from it. [ ]: non-standard residue; d: D form. d2Nal = N[C@H](Cc1ccc2ccccc2c1)C(=O)O; Aib = CC(C)(N)C(=O)O
How the values were obtained:
[1] = target: Growth hormone secretagogue receptor type 1 (Rattus norvegicus) (UniProt O08725); assay: (§1) Tested for GH-releasing property using classical rat pituitary cell assay; type: functional, cell-based; settings: Pituitary gland cell
[2] = Oral bioavailability in dog (Beagle); type: ADME, organism-based, Canis lupus familiaris; settings: in vivo; for bioavailability: beagle
[3] = target: Growth hormone secretagogue receptor type 1 (Rattus norvegicus, UniProt O08725); assay: as §1; type: functional, cell-based, Pituitary gland cell
Growth hormone secretagogue receptor type 1, sequence (O08725 whole entry): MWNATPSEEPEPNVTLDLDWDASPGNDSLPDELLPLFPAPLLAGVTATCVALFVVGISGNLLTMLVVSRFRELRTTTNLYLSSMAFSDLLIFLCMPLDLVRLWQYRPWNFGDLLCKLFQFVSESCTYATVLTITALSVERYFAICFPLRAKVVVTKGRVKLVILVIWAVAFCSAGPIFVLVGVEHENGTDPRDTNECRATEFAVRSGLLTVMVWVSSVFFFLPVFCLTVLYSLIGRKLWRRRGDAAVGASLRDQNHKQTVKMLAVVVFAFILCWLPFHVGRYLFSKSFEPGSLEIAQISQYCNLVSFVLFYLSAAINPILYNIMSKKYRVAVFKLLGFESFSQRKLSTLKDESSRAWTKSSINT

[4] = test system: Sus scrofa; assay: Tested for in vivo activity against GH release after iv administration in swine
[5] = test system: Canis familiaris; assay: Compound was tested Growth Hormone(GH) release after 0.5 mg/kg administration (Po) in Beagle dogs; type: functional, organism-based; design: dose 0.5 mg/kg; settings: Canis lupus familiaris
[6] = Compound was tested for oral bioavailability after 10 mg/kg administration (Po) in Beagle dogs; fpo % Oral Bioavailability; type: ADME, organism-based, Canis lupus familiaris; settings: dog, in vivo
[7] = Compound was tested for maximum blood concentration after 0.5 mg/kg administration (Po) in Beagle dogs; nM/L maximum blood concentration; type: ADME, organism-based, Canis lupus familiaris; design: route oral, dose 0.5 mg/kg; settings: dog
[8] = species: Rattus norvegicus; assay: Compound was tested against the effect of D-Lys3-GHRP-6 on the release of growth hormone from pituitary cells in rat; type: functional, cell-based; settings: Pituitary gland cell
[9] = Compound was tested for maximum blood concentration after 10 mg/kg administration (Po) in Beagle dogs; nM/L maximum blood concentration; type: ADME, organism-based, Canis lupus familiaris; design: route oral, dose 10 mg/kg; settings: dog
[10] = species: Rattus norvegicus; assay: Compound was tested against the effect of substance P antagonist on the release of growth hormone from pituitary cells in rat; type: functional, cell-based; settings: Pituitary gland cell
[11] = test system: Sus scrofa; assay: Compound was tested for potency against GH release iv administration in swine; type: functional
[12] = test system: Canis familiaris; assay: Compound was tested Growth Hormone(GH) release after 2.5 mg/kg administration (Po) in Beagle dogs; type: functional, organism-based; design: dose 2.5 mg/kg; settings: Canis lupus familiaris
[13] = Compound was tested for oral bioavailability after 0.5 mg/kg administration (Po) in Beagle dogs; fpo % Oral Bioavailability; type: ADME, organism-based, Canis lupus familiaris; settings: dog, in vivo
[14] = species: Rattus norvegicus; assay: Compound was tested against the effect of N-acetyl-Tyr-D-Arg(1-29)GHRH-NH2 on the release of growth hormone from pituitary cells in rat; type: functional, cell-based; settings: Pituitary gland cell
[15] = test system: Sus scrofa; assay: Compound was tested for efficacy against GH release iv administration in swine; type: functional
[16] = species: Rattus norvegicus; assay: Compound was tested against the effect of L-692400 on the release of growth hormone from pituitary cells in rat; type: functional, cell-based; settings: Pituitary gland cell
[17] = Compound was tested for maximum blood concentration after 2.5 mg/kg administration (Po) in Beagle dogs; nM/L maximum blood concentration; type: ADME, organism-based, Canis lupus familiaris; design: route oral, dose 2.5 mg/kg; settings: dog
[18] = Oral bioavailability in dog (Beagle) (dose 2.5 mg/kg); type: ADME, organism-based, Canis lupus familiaris; settings: in vivo
[19] = test system: Canis familiaris; assay: Compound was tested Growth Hormone(GH) release after 10 mg/kg administration (Po) in Beagle dogs; type: functional, organism-based; design: dose 10 mg/kg; settings: Canis lupus familiaris
[20] = test system: Sus scrofa; assay: Compound was tested for potency against GH release upon iv administration in swine; type: functional
[21] = test system: Sus scrofa; assay: Compound was tested for efficacy against GH release upon iv administration in swine; type: functional
[22] = Compound was tested for maximum concentration in blood after 2.5 mg/kg administration (Po) in Beagle dogs; nmol/L maximum blood concentration; settings: dog
[23] = Compound was tested for oral bioavailability after 10 mg/kg administration (Po) in Beagle dogs; F % Oral Bioavailability; type: ADME, organism-based, Canis lupus familiaris; settings: dog, in vivo
[24] = Compound was tested for maximum concentration in blood after 10 mg/kg administration (Po) in Beagle dogs; nmol/L maximum blood concentration; settings: dog

Growth hormone secretagogue receptor type 1 (Rattus norvegicus), sequence (O08725 whole entry): as above

`CNC(=O)[C@@H](Cc1ccc(F)c(F)c1)N(C)C(=O)[C@@H](Cc1ccc2ccccc2c1)N(C)C(=O)/C=C/CC(C)(C)N` showed an Emax [1] of 85%, a bioavailability [2] of 54% and an EC50 [3] of 0.017 µM. The Cmax [GH] [4] was 6 ng/mL.
In the case of `CN(C(=O)/C=C/CC(C)(C)N)[C@H](Cc1cccc2ccccc12)C(=O)N(C)[C@H](Cc1ccccc1)C(=O)NCC1CCCO1` (stereo partly drawn), the Emax [1] is reported as 110% and the EC50 [3] is reported as 0.021 µM.
Compound `CCNC(=O)[C@@H](Cc1ccccc1)N(C)C(=O)[C@@H](Cc1ccc2ccccc2c1)N(C)C(=O)/C=C/CC(C)(C)N` has an Emax [1] of 105%, a bioavailability [2] of 14% and an EC50 [3] of 0.013 µM.
`C[C@@H](O)CNC(=O)[C@@H](Cc1ccccc1)N(C)C(=O)[C@@H](Cc1ccc2ccccc2c1)N(C)C(=O)/C=C/CC(C)(C)N` (stereo in doubt; 7o) [listing 1 of 2 here] gave an F [2] of 0% and an EC50 [3] of 0.009 µM.
Compound `CNC(=O)[C@@H](Cc1ccc(F)cc1)N(C)C(=O)[C@@H](Cc1ccc2ccccc2c1)N(C)C(=O)/C=C/CC(C)(C)N` has a Cmax [GH] [5] of 2.7 ng/mL, a bioavailability [6] of 138% and a Cmax [7] of 99 nM. The IC50 [8] was 9 µM, the Emax [1] was 90% and the Cmax [9] was 3030 nM. The IC50 [10] was 0.049 µM, the bioavailability [2] was 49% and the ED50 [11] was 0.129 µmol/kg. It also gave a Cmax [GH] [12] of 4.5 ng/mL, a bioavailability [13] of 53% and an IC50 [14] of over 10 µM. The EC50 [3] was 0.008 µM, the Cmax [GH] [4] was 30 ng/mL and the Emax [15] was 86 ng/mL. It also gave an IC50 [16] of 14 µM, a Cmax [17] of 247 nM and a bioavailability [18] of 55%. It also gave a Cmax [GH] [19] of 12 ng/mL.
With `CNC(=O)[C@@H](Cc1cccs1)N(C)C(=O)[C@@H](Cc1ccc2ccccc2c1)N(C)C(=O)/C=C/CC(C)(C)N` the Emax [1] was 110%, the bioavailability [2] was 15% and the EC50 [3] was 0.002 µM. It also gave a Cmax [GH] [4] of 55 ng/mL.
`C[C@H](O)CNC(=O)[C@@H](Cc1cccs1)N(C)C(=O)[C@@H](Cc1ccc2ccccc2c1)N(C)C(=O)/C=C/CC(C)(C)N` showed an Emax [1] of 120% and an EC50 [3] of 0.045 µM.
`CNC(=O)[C@@H](Cc1ccccc1)N(C)C(=O)[C@@H](Cc1cccc2ccccc12)N(C)C(=O)/C=C/CC(C)(C)N` showed an Emax [1] of 115%, an EC50 [3] of 0.024 µM and a Cmax [GH] [4] of 12 ng/mL.
In the case of `CN(C(=O)/C=C/CC(C)(C)N)[C@H](Cc1ccc2ccccc2c1)C(=O)N(C)[C@H](Cc1ccccc1)C(=O)NCC1CC1`, the Emax [1] is reported as 105%, the bioavailability [2] is reported as 24% and the EC50 [3] is reported as 0.0018 µM. The Cmax [GH] [4] was 14 ng/mL.
`CNC(=O)[C@@H](Cc1ccc(I)cc1)N(C)C(=O)[C@@H](Cc1ccc2ccccc2c1)N(C)C(=O)/C=C/CC(C)(C)N` gave an Emax [1] of 110%, a bioavailability [2] of 26% and an EC50 [3] of 0.02 µM. The Cmax [GH] [4] was 0.4 ng/mL.
`C[C@H](O)CNC(=O)[C@@H](Cc1ccc(F)c(F)c1)N(C)C(=O)[C@@H](Cc1ccc2ccccc2c1)N(C)C(=O)/C=C/CC(C)(C)N` gave an Emax [1] of 100%, an EC50 [3] of 0.005 µM and a Cmax [GH] [4] of 5 ng/mL.
With `C[C@@H](O)CNC(=O)[C@@H](Cc1ccccc1)N(C)C(=O)[C@@H](Cc1ccc2ccccc2c1)N(C)C(=O)/C=C/CC(C)(C)N` (stereo in doubt; 7o) [listing 2 of 2 here] the Emax [1] was 105% and the Cmax [GH] [4] was 9 ng/mL.
`CNC(=O)[C@@H](Cc1ccccc1)N(C)C(=O)[C@@H](Cc1csc2ccccc12)N(C)C(=O)/C=C/CC(C)(C)N` gave an Emax [1] of 80% and an EC50 [3] of 0.035 µM.
For `CC(C)(N)C(=O)N[C@@H](Cc1c[nH]cn1)C(=O)N[C@H](Cc1ccc2ccccc2c1)C(=O)N[C@H](Cc1ccccc1)C(=O)N[C@@H](CCCCN)C(N)=O` [IPAMORELIN] (H-[Aib]H[d2Nal][dF]K-NH2), the ED50 [11] was 0.0023 µmol/kg and the Emax [15] was 65 ng/mL.
For `CNC(=O)[C@@H](Cc1ccccc1)N(C)C(=O)[C@@H](Cc1ccc(-c2ccccc2)cc1)N(C)C(=O)/C=C/CC(C)(C)N`, the Emax [1] was 120%, the bioavailability [2] was 0% and the EC50 [3] was 0.003 µM.
Work on `CNC(=O)[C@@H](Cc1ccccc1)N(C)C(=O)[C@@H](Cc1ccc2ccccc2c1)N(C)C(=O)/C=C/CC(C)(C)N` [TABIMORELIN] yielded an Emax [1] of 110% and an EC50 [3] of 0.018 µM.
`C[C@H](NC(=O)C(Cc1c[nH]c2ccccc12)NC(=O)[C@@H](N)Cc1c[nH]cn1)C(=O)N[C@@H](Cc1c[nH]c2ccccc12)C(=O)NC(Cc1ccccc1)C(=O)N[C@@H](CCCCN)C(N)=O` (single isomer, unassigned) showed an IC50 [8] of 8 µM, an Emax [1] of 100% and an IC50 [10] of 0.038 µM. It also gave an IC50 [14] of over 10 µM, an ED50 [20] of 0.0039 µmol/kg and an Emax [21] of 74 ng/mL. It also gave an IC50 [16] of 10 µM.
Compound `C[C@@H](O)CNC(=O)[C@@H](Cc1ccccc1)N(C)C(=O)[C@@H](Cc1ccc2ccccc2c1)N(C)C(=O)/C=C/CC(C)(C)N` (stereo in doubt; 7b) [listing 1 of 2 here] has a Cmax [GH] [5] of 1.8 ng/mL, an Emax [1] of 130% and a Cmax [GH] [12] of 6.6 ng/mL. It also gave a Cmax [GH] [4] of 26 ng/mL and a Cmax [GH] [19] of 42.5 ng/mL.
`CNC(=O)[C@@H](Cc1ccccc1)N(C)C(=O)[C@@H](COCc1ccccc1)N(C)C(=O)/C=C/CC(C)(C)N` gave an Emax [1] of 125%, a bioavailability [2] of 11% and an EC50 [3] of 0.005 µM. It also gave a Cmax [GH] [4] of 0.4 ng/mL.
For `CN(C(=O)/C=C/CC(C)(C)N)[C@H](Cc1ccc2ccccc2c1)C(=O)N(C)[C@H](Cc1ccccc1)C(=O)NCC1CCCO1` (stereo partly drawn), the Emax [1] was 100%, the bioavailability [2] was 17% and the EC50 [3] was 0.016 µM. For the same compound, the Cmax [GH] [4] was 9 ng/mL.
Compound `C[C@@H](O)CNC(=O)[C@@H](Cc1ccccc1)N(C)C(=O)[C@@H](Cc1ccc2ccccc2c1)N(C)C(=O)/C=C/CC(C)(C)N` (stereo in doubt; 7b) [listing 2 of 2 here] has an IC50 [8] of 8 µM, a Cmax [22] of 260 nM and an IC50 [10] of 0.14 µM. The F [2] was 25%, the ED50 [11] was 0.031 µmol/kg and the bioavailability [23] was 41%. For the same compound, the IC50 [14] was over 10 µM, the EC50 [3] was 0.0089 µM and the Cmax [24] was 2320 nM. For the same compound, the Emax [15] was 96 ng/mL, the IC50 [16] was 11 µM and the bioavailability [18] was 21%.

— ChEMBL document CHEMBL1131585, “Novel orally active growth hormone secretagogues” (J Med Chem, 1998)
